Measured values published in patent US20260092061A1, “COMPOUNDS FOR TARGETED PROTEIN DEGRADATION” (Amphista Therapeutics Limited, priority 2022, published 2026).
Read-outs that look alike come from different tables or passages of the source.

Target: T1, BRD9 (Homo sapiens, UniProt Q9H8M2)
T1 sequence (Q9H8M2 1-597): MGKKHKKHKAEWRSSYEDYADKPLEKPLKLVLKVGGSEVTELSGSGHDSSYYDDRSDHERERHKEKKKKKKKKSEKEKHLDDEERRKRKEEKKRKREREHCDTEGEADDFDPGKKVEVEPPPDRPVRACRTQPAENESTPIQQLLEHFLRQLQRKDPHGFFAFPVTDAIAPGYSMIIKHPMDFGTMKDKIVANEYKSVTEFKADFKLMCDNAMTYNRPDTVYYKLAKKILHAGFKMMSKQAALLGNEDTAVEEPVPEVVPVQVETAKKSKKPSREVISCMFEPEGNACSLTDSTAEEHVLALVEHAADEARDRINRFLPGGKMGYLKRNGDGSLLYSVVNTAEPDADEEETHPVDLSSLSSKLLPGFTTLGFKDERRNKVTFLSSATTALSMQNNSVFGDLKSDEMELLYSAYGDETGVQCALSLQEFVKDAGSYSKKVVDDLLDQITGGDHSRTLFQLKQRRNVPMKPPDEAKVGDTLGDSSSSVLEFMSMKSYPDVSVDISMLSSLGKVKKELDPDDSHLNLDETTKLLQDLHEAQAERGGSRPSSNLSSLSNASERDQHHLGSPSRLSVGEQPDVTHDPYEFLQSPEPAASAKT
Experiment: Degradation of BRD9 (IF), immunofluorescence in MV4-11 cells, 24 hours (Assay Protocol 2)
Format: cell-based
Parameters: A suspension of MV4-11 cells (ATCC CRL-9591) was prepared; host or cells: MV4-11
Conditions: BRD9 degradation
Procedure: Assay Protocol 2—Degradation of BRD9 (IF)
A suspension of MV4-11 cells (ATCC CRL-9591) was prepared in phenol red-free assay media (IMDM Thermo Scientific 21056023+10% FBS ATCC 302025) and cells were seeded at 20,000 cells per well (45 μL) in sterile black poly-d-lysine coated 384 well plates (Greiner 781948). Compounds were prepared at 1000× final concentration in DMSO, diluted 1:100 in assay media, and 5 μL compound was added to each well of the cell plate. Cells were incubated for 24 hours at 37° C. with 5% CO2. All the following incubations for immunofluorescence staining were at room temperature. 15 μL of 16% PFA was added to each well (3.7% final concentration) and the cells were fixed for 15 min then washed twice with DPBS. Cells were permeabilised with 0.1% Triton X-100 for 10 min, Triton X-100 was removed, then blocked with 1% BSA in DPBS for 1 hour. Cells were stained with 25 μL anti-BRD9 E4Q3F antibody (CST 48306) diluted 1:25600 in 1% BSA in DPBS for 2-3 hours. Wels were washed twice with DPBS then incubated with 25 μL of 1% BSA containing a 1:1000 dilution of Anti-rabbit Alexa Fluor™ 647 secondary antibody (Thero Scientific A21244) and 1 μg/mL Hoechst nuclear counter stain (Abcam ab228551) for 1 hour. Wells were washed twice with DPBS prior to imaging on a Perkin Elmer Operetta CLS with 10× air lens. Images were processed using Harmony High-Content Imaging and Analysis Software (Perkin Elmer) and the mean contrast ratio of Alexa Fluor™ 647 in central nuclei was used to quantify BRD9 protein levels. Data was further analysed using Dotmatics software and % BRD9 remaining was calculated by normalisation to average data from high and low control wells (cells treated with DMSO or 100 nM CFT-8634 respectively).

[1] = Assay protocol 2, read-out: DC50
[2] = MV4-11, Assay protocol 2, read-out: Dmax

Compound	Dmax (MV4-11, Table 4, determined according to Assay Protocol 2, read-out: Dmax^2) [%]	DC50 (Table 4, determined according to Assay Protocol 2, read-out: DC50^2) [nM]	DC50 [1] [nM]	Dmax [2] [%]
COc1cc(-c2cn(C)c(=O)c(C)c2C)cc(OC)c1CN1C2CC1CN(C(=O)/C(C#N)=C/c1cc(C)on1)C2 (mixture of isomers) [BRD9y, (E/Z)-2-(6-(2,6-dimethoxy-4-(1,4,5-trimethyl-6-oxo-1,6-dihydropyridin-3-yl)benzyl)-3,6-diazabicyclo[3.1.1]heptane-3-carbonyl)-3-(5-methylisoxazol-3-yl)acrylonitrile]	30 to 50	< 25		
COc1cc(-c2cn(C)c(=O)c(C)c2C)cc(OC)c1CN1CCC(Oc2cccc(C3CCCN3C(=O)/C(C#N)=C/C(C)(C)C)c2)CC1 (mixture of isomers) [Compound B48, (E/Z)-2-(2-(3-((1-(2,6-dimethoxy-4-(1,4,5-trimethyl-6-oxo-1,6-dihydropyridin-3-yl)benzyl)piperidin-4-yl)oxy)phenyl)pyrrolidine-1-carbonyl)-4,4-dimethylpent-2-enenitrile]			1.25 to 10	> 75
COc1cc(-c2cn(C)c(=O)c(C)c2C)cc(OC)c1CN1CCN(Cc2cccc3c2CCN(C(=O)/C(C#N)=C/c2cccc(Br)n2)C3C)CC12CC2 (mixture of isomers) [Compound B61, (E/Z)-3-(6-bromopyridin-2-yl)-2-(5-((4-(2,6-dimethoxy-4-(1,4,5-trimethyl-6-oxo-1,6-dihydropyridin-3-yl)benzyl)-4,7-diazaspiro[2.5]octan-7-yl)methyl)-1-methyl-1,2,3,4-tetrahydroisoquinoline-2-carbonyl)acrylonitrile]			1.25 to 10	> 75
COc1cc(-c2cn(C)c(=O)c(C)c2C)cc(OC)c1CN1CC(Oc2cccc(C3CCCN3C(=O)/C(C#N)=C/C(C)(C)C)c2)C1 (mixture of isomers) [Compound B62, (E/Z)-2-(2-(3-((1-(2,6-dimethoxy-4-(1,4,5-trimethyl-6-oxo-1,6-dihydropyridin-3-yl)benzyl)azetidin-3-yl)oxy)phenyl)pyrrolidine-1-carbonyl)-4,4-dimethylpent-2-enenitrile]			1.25 to 10	> 75
COc1cc(-c2cn(C)c(=O)c(C)c2C)cc(OC)c1CN1CCC(Oc2cccc3c2CCN(C(=O)/C(C#N)=C/c2ccc(C(F)(F)F)cn2)C3C)CC1 (mixture of isomers) [Compound B64, (E/Z)-2-(5-((1-(2,6-dimethoxy-4-(1,4,5-trimethyl-6-oxo-1,6-dihydropyridin-3-yl)benzyl)piperidin-4-yl)oxy)-1-methyl-1,2,3,4-tetrahydroisoquinoline-2-carbonyl)-3-(5-(trifluoromethyl)pyridin-2-yl)acrylonitrile]			< 1.25	> 75
COc1cc(-c2cn(C)c(=O)c(C)c2C)cc(OC)c1C(=O)N1CCCN(Cc2cccc3c2CCN(C(=O)/C(C#N)=C/C(C)(C)C)C3C)CC1 (mixture of isomers) [Compound B65, (E/Z)-2-(5-((4-(2,6-dimethoxy-4-(1,4,5-trimethyl-6-oxo-1,6-dihydropyridin-3-yl)benzoyl)-1,4-diazepan-1-yl)methyl)-1-methyl-1,2,3,4-tetrahydroisoquinoline-2-carbonyl)-4,4-dimethylpent-2-enenitrile]			1.25 to 10	> 75
COc1cc(-c2cn(C)c(=O)c(C)c2C)cc(OC)c1CN1CC[C@H](Oc2cccc(C3CCCN3C(=O)/C(C#N)=C/C(C)(C)C)c2)C1 (mixture of isomers) [Compound B67, (E/Z)-2-(2-(3-(((S)-1-(2,6-dimethoxy-4-(1,4,5-trimethyl-6-oxo-1,6-dihydropyridin-3-yl)benzyl)417yrrolidine-3-yl)oxy)phenyl)pyrrolidine-1-carbonyl)-4,4-dimethylpent-2-enenitrile]			1.25 to 10	> 75
COc1cc(-c2cn(C)c(=O)c(C)c2C)cc(OC)c1CN1CCCN(Cc2cccc3c2CCN(C(=O)/C(C#N)=C/c2cccc(C(F)(F)F)n2)C3C)CC1 (mixture of isomers) [Compound B68, (E/Z)-2-(5-((4-(2,6-dimethoxy-4-(1,4,5-trimethyl-6-oxo-1,6-dihydropyridin-3-yl)benzyl)-1,4-diazepan-1-yl)methyl)-1-methyl-1,2,3,4-tetrahydroisoquinoline-2-carbonyl)-3-(6-(trifluoromethyl)pyridin-2-yl)acrylonitrile]			< 1.25	> 75
COc1cc(-c2cn(C)c(=O)c(C)c2C)cc(OC)c1CN1CCN(Cc2cccc3c2CCN(C(=O)/C(C#N)=C/C2CCOCC2)C3C)CC1 (mixture of isomers) [Compound B69, (E/Z)-2-(5-((4-(2,6-dimethoxy-4-(1,4,5-trimethyl-6-oxo-1,6-dihydropyridin-3-yl)benzyl)piperazin-1-yl)methyl)-1-methyl-1,2,3,4-tetrahydroisoquinoline-2-carbonyl)-3-(tetrahydro-2H-pyran-4-yl)acrylonitrile]			1.25 to 10	40 to 70
COc1cc(-c2cn(C)c(=O)c(C)c2C)cc(OC)c1CN1CCN(Cc2cccc3c2CCN(C(=O)/C(C#N)=C/c2cccnc2OC)C3C)CC1 (mixture of isomers) [Compound B70, (E/Z)-2-(5-((4-(2,6-dimethoxy-4-(1,4,5-trimethyl-6-oxo-1,6-dihydropyridin-3-yl)benzyl)piperazin-1-yl)methyl)-1-methyl-1,2,3,4-tetrahydroisoquinoline-2-carbonyl)-3-(2-methoxypyridin-3-yl)acrylonitrile]				40 to 70
COc1ccc(/C=C(\C#N)C(=O)N2CCc3c(CN4CCN(Cc5c(OC)cc(-c6cn(C)c(=O)c(C)c6C)cc5OC)CC4)cccc3C2C)cn1 (mixture of isomers) [Compound B71, (E/Z)-2-(5-((4-(2,6-dimethoxy-4-(1,4,5-trimethyl-6-ox0-1,6-dihydropyridin-3-yl)benzyl)piperazin-1-yl)methyl)-1-methyl-1,2,3,4-tetrahydroisoquinoline-2-carbonyl)-3-(6-methoxypyridin-3-yl)acrylonitrile]			1.25 to 10	40 to 70
COc1cc(-c2cn(C)c(=O)c(C)c2C)cc(OC)c1CN1CCN(Cc2cccc3c2CCN(C(=O)/C(C#N)=C/C2CCC(F)(F)CC2)C3C)CC1 (mixture of isomers) [Compound B72, (E/Z)-3-(4,4-difluorocyclohexyl)-2-(5-((4-(2,6-dimethoxy-4-(1,4,5-trimethyl-6-oxo-1,6-dihydropyridin-3-yl)benzyl)piperazin-1-yl)methyl)-1-methyl-1,2,3,4-tetrahydroisoquinoline-2-carbonyl)acrylonitrile]			1.25 to 10	40 to 70
COc1cc(-c2cn(C)c(=O)c(C)c2C)cc(OC)c1CN1CCN(Cc2cccc3c2CCN(C(=O)/C(C#N)=C/C2CCCCC2)C3C)CC1 (mixture of isomers) [Compound B73, (E/Z)-3-cyclohexyl-2-(5-((4-(2,6-dimethoxy-4-(1,4,5-trimethyl-6-oxo-1,6-dihydropyridin-3-yl)benzyl)piperazin-1-yl)methyl)-1-methyl-1,2,3,4-tetrahydroisoquinoline-2-carbonyl)acrylonitrile]			25 to 1000	40 to 70
COc1cc(-c2cn(C)c(=O)c(C)c2C)cc(OC)c1CN1CCN(Cc2cccc3c2CCN(C(=O)/C(C#N)=C/c2cccc(C#N)c2)C3C)CC1 (mixture of isomers) [Compound B74, (E/Z)-3-(2-cyano-3-(5-((4-(2,6-dimethoxy-4-(1,4,5-trimethyl-6-oxo-1,6-dihydropyridin-3-yl)benzyl)piperazin-1-yl)methyl)-1-methyl-3,4-dihydroisoquinolin-2(1H)-yl)-3-oxoprop-1-en-1-yl) benzonitrile]			< 1.25	40 to 70
